By TGI is commonly meant the concentration giving total growth inhibition. Read a high TGI as lower sensitivity of the cells. As usually defined, the GI50 is the concentration that inhibits growth by half.

Values joined by “and” are separate entries in the source; they are usually repeats but may differ in a detail not shown here. Identical values can stand only once.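 96-well plates; 48 h exposure; 5 concentrations. Endpoints by linear interpolation between flanking doses. Not reached: highest tested concentration assigned. Abbreviation: GI50, concentration required for 50% inhibition of growth. TGI: total growth inhibition.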

Test systems include HT29 colon; SK-OV-3 ovarian; SN12C renal; KM12 colon; MDA-MB-231 breast; OVCAR-3 ovarian; HCT-15 colon; NCI-H23 lung; EKVX NSCLC; HL-60(TB) leukemia.
Assay in all cases: DTP human tumour cell line panel, 48 h

As to `N=C(N)SCC(=O)O`, the TGI in the assay on HT29 colon, in the assay on SK-OV-3 ovarian, in the assay with SN12C renal, in the assay on KM12 colon, with MDA-MB-231 breast and in the assay on OVCAR-3 ovarian was above 100 µM throughout. For the same compound, the TGI in the assay with HCT-15 colon, with NCI-H23 lung and with EKVX NSCLC was above 100 µM throughout.

Consider `COc1ccc(C2NC(=S)NC3=C2COc2ccc(F)cc23)cc1OC` (stereo unspecified), for which the GI50 in the assay on SK-OV-3 ovarian was 71.2 µM; in the assay with SN12C renal, 15.1 µM; in the assay with KM12 colon, 25.9 µM; with MDA-MB-231 breast, 8.37 µM; in the assay with OVCAR-3 ovarian, 11 µM; with HCT-15 colon it was 18.6 µM. Moreover, the GI50 was 18500 nM in the assay with HL-60(TB) leukemia, 14.1 µM in the assay on NCI-H23 lung and 29.8 µM with EKVX NSCLC. Moreover, the TGI is above 100 µM with SK-OV-3 ovarian; 50.1 µM in the assay with SN12C renal; above 100 µM in the assay on KM12 colon; 53.5 µM in the assay with MDA-MB-231 breast; 49.9 µM in the assay on OVCAR-3 ovarian; 87 µM with HCT-15 colon. Besides, the total growth inhibition concentration (TGI) is 50.7 µM in the assay on HL-60(TB) leukemia, 34.2 µM in the assay with NCI-H23 lung and above 100 µM in the assay with EKVX NSCLC.

As to `CC[C@H](C)[C@H](NC(=O)N[C@@H](C)c1ccccc1)C(=O)N(C)[C@H](C[C@@H](OC(C)=O)c1nc(C(=O)N[C@@H](Cc2ccccc2)C[C@H](C)C(=O)OC)cs1)C(C)C`, the GI50 in the assay with HT29 colon is 28.3 µM; with SK-OV-3 ovarian, 42.2 µM; in the assay with SN12C renal it was 48.8 µM; in the assay with KM12 colon it was 17.2 µM; in the assay with MDA-MB-231 breast, 20.7 µM; in the assay on OVCAR-3 ovarian, 16.9 µM. In addition, the values for the GI50 in the assay with HCT-15 colon, in the assay on NCI-H23 lung and with EKVX NSCLC were 25.4 µM, 28.2 µM and 37.5 µM, respectively. Further, the TGI with HT29 colon is above 100 µM; in the assay with SK-OV-3 ovarian it was above 100 µM; with SN12C renal, above 100 µM; in the assay on KM12 colon, 84.3 µM; in the assay with MDA-MB-231 breast, 63.8 µM; with OVCAR-3 ovarian, 42.2 µM. The TGI in the assay with HCT-15 colon, in the assay with NCI-H23 lung and in the assay on EKVX NSCLC was above 100 µM throughout.

As for `C/C(=N\O)[C@H]1CC[C@@]2(C)[C@@H]3CC[C@H]4C(C)(C)/C(=N/O)CC[C@@]45CC35CC[C@]12C` (stereo partly specified), the GI50 with HT29 colon is 5.56 µM; in the assay with SK-OV-3 ovarian, 6.18 µM; with SN12C renal it was 6.58 µM; in the assay on KM12 colon, 2.84 µM; with MDA-MB-231 breast, 7.46 µM; in the assay with HCT-15 colon it was 3.75 µM. In addition, the GI50 is 1620 nM in the assay with HL-60(TB) leukemia, 4.96 µM in the assay with NCI-H23 lung and 5.66 µM with EKVX NSCLC. Moreover, the total growth inhibition concentration (TGI) in the assay on HT29 colon is above 16.7 µM; with SK-OV-3 ovarian it was above 16.7 µM; in the assay on SN12C renal it was above 16.7 µM; with KM12 colon, 7.03 µM; with MDA-MB-231 breast, above 16.7 µM; in the assay on HCT-15 colon, 10.5 µM. The concentration for total growth inhibition (TGI) with HL-60(TB) leukemia, with NCI-H23 lung and in the assay with EKVX NSCLC was above 16.7 µM throughout.

For the compound `O=c1c2ccccc2c(=O)c2c1sc1c(=O)c3ccc(O)cc3c(=O)c12`, the GI50 with HT29 colon was 2.39 µM; with SK-OV-3 ovarian, 1.38 µM; with SN12C renal, 0.187 µM; in the assay on KM12 colon it was 2.05 µM; with MDA-MB-231 breast, 1.72 µM; in the assay with OVCAR-3 ovarian it was 0.263 µM. Also, the results for the GI50 in the assay on HL-60(TB) leukemia, in the assay on NCI-H23 lung and in the assay on EKVX NSCLC were 2380 nM, 0.181 µM and 1.34 µM, respectively. Moreover, the concentration for total growth inhibition (TGI) stood at 6.01 µM in the assay with HT29 colon; 2.91 µM in the assay with SK-OV-3 ovarian; 0.36 µM with SN12C renal; 8.24 µM in the assay on KM12 colon; 8.19 µM with MDA-MB-231 breast; 0.924 µM with OVCAR-3 ovarian. Besides, the TGI in the assay with HL-60(TB) leukemia is 9.77 µM; in the assay on NCI-H23 lung, 0.505 µM; with EKVX NSCLC it was 3.66 µM.

For `CCCCCCCCCCCCCCCCCCNC(=O)[C@H]1CSC(c2ccc(F)c(OC)c2)N1` (stereo partly specified), the GI50 was 1.03 µM in the assay with HT29 colon; 1.92 µM with SK-OV-3 ovarian; 0.805 µM in the assay on SN12C renal; 0.899 µM in the assay with KM12 colon; 0.842 µM with MDA-MB-231 breast; 670 nM in the assay on HL-60(TB) leukemia. Besides, the GI50 with NCI-H23 lung is 1.42 µM; in the assay with EKVX NSCLC, 0.813 µM. For the same compound, the TGI in the assay on HT29 colon was found to be 2.12 µM; in the assay on SK-OV-3 ovarian, 11.2 µM; in the assay on SN12C renal it was 1.72 µM; in the assay on KM12 colon, 1.79 µM; in the assay on MDA-MB-231 breast it was 1.67 µM; in the assay on HL-60(TB) leukemia, 1.62 µM. For the same compound, the values for the TGI in the assay with NCI-H23 lung and in the assay with EKVX NSCLC were 5.05 µM and 1.6 µM, respectively.

In the case of `CCCC(=O)Nc1cn(COC)c(C(=O)N2C[C@H]3C[C@@]34C2=CC(=O)c2[nH]cc(C)c24)n1`, the GI50 in the assay with HT29 colon is 12.4 µM; with SK-OV-3 ovarian, 26.7 µM; with SN12C renal it was 5.55 µM; in the assay with KM12 colon, 8.81 µM; in the assay with MDA-MB-231 breast it was 10.7 µM; with OVCAR-3 ovarian, 4.93 µM. The results for the GI50 in the assay on NCI-H23 lung and in the assay on EKVX NSCLC were 2.59 µM and 39.1 µM, respectively. For the same compound, the TGI with HT29 colon was 25.2 µM and > 100 µM; with SK-OV-3 ovarian, 50 µM and > 100 µM; in the assay with SN12C renal, 42.9 µM and 71.2 µM; in the assay on KM12 colon, above 100 µM; in the assay on MDA-MB-231 breast it was 39.7 µM and > 100 µM; in the assay on OVCAR-3 ovarian, 24.5 µM and 72 µM. The TGI was 50 µM and 72.2 µM with HCT-15 colon; 11.8 µM and 16.7 µM in the assay on NCI-H23 lung; 39 µM and > 100 µM in the assay on EKVX NSCLC.

For the compound `c1cc2ccc1C1NCCCN1CCN1CCCNC1c1ccc(cc1)C1NCCCN1CCN1CCCNC21` (stereo unspecified), the concentration for total growth inhibition (TGI) with HT29 colon, in the assay with SK-OV-3 ovarian, with SN12C renal, in the assay on KM12 colon, with OVCAR-3 ovarian and with HCT-15 colon was above 100 µM in each case. Moreover, the results for the TGI in the assay on HL-60(TB) leukemia, in the assay on NCI-H23 lung and with EKVX NSCLC were 67.8 µM, above 100 µM and above 100 µM, respectively.

Turning to `CNc1ccc(N=Nc2cccc3ncccc23)cc1`, the GI50 with HT29 colon was 37.5 µM; in the assay on SK-OV-3 ovarian it was above 73.9 µM; with SN12C renal, 36.5 µM; with KM12 colon, 34.3 µM; with MDA-MB-231 breast, 7.47 µM; in the assay on HCT-15 colon it was 16.1 µM. Further, the results for the GI50 in the assay on HL-60(TB) leukemia, in the assay with NCI-H23 lung and with EKVX NSCLC were 4880 nM, 17.1 µM and 3.62 µM, respectively. Besides, the total growth inhibition concentration (TGI) in the assay with HT29 colon, in the assay on SK-OV-3 ovarian, with SN12C renal, in the assay with KM12 colon, in the assay on MDA-MB-231 breast and in the assay with HCT-15 colon was above 100 µM throughout. Besides, the TGI with HL-60(TB) leukemia, in the assay with NCI-H23 lung and in the assay with EKVX NSCLC was above 100 µM each time.

Source of the values: PubChem BioAssay (NCI).
